Laboratory results from patent publication US10201558B2, “Compositions of selenoorganic compounds and methods of use thereof” (Alltech, Inc., priority 2014, dated 2019).

Test system: primary fetal rat neurons
Experiment: Cell survival of primary cortical neurons (cell counts)
Assay type: cell-based
Conditions: 24 hours, Control 100 ± 1.57, mixture: 30 ppb of the element from each compound; for Viable Cell Number (Mean ± SEM, n = 6): 150 ppb selenium compound(s); for Viable Cell Number (Mean + SEM, n = 6): 150 ppb sulfur compound(s)
Description: For primary neurons, dissociated primary cortical neuron cultures were established from E-18 rat embryos as previously described (Lovell et al., Free Radic. Biol. Med. 2000; Lovell et al., Neurobiol. Aging 2001). Studies were carried out on cells 7 days in culture by switching to Locke's solution consisting of 1 mL of 154 mM NaCl, 5.6 mM KCl, 2.3 mM CaCl2, 1.0 mM MgCl2, 3.6 mM NaHCO3, 10 mM glucose, 5 mM HEPES (pH 7.2) with 10 mg/L gentamicin sulfate. Primary neurons were treated for 24 hours in Locke's solution with the indicated selenium and sulfur compounds in Table 5. Cell counts were performed to measure cell survival/toxicity.
The effects of the selenium and sulfur compounds, identified as components of water extracts of selenium-enriched yeast, on neuronal cell survival was also tested. Primary neurons isolated from fetal rat brain were incubated with chemically synthesized individual selenium and sulfur compounds that were identified as components of water extracts of selenium-enriched yeast (Table 5). In this case, the elemental concentration of each compound identified in Table 5 was 150 ppb and, where mixtures were used, the 150 ppb treatment was made up of 30 ppb of the element from each of the five compounds in question.

SMILES | Viable Cell Number (Mean ± SEM, n = 6) | Viable Cell Number (Mean + SEM, n = 6)
C[Se]C[C@H](N)C(=O)O [A, L-Methylselenocysteine] | 94.45 ± 1.72 | –
C[Se]CC[C@H](N)C(=O)O [B, L-Selenomethionine] | 90.59 ± 6.82 | –
CSC[C@H]1O[C@@H](n2cnc3c(N)ncnc32)[C@H](O)[C@@H]1O [Compound H, 5′-deoxy-5′-methylthioadenosine] | – | 100.24 ± 9.45
CSC[C@H](N)C(=O)O [F, L-Methylcysteine] | – | 96.48 ± 3.89
CSCC[C@H](N)C(=O)O [G, L-methionine] | – | 103.84 ± 4.98
